The record followed here is PMC6286365 (Scientific Reports, 2018).

Data set [1] deals with T1, human nSMase2 (Homo sapiens, UniProt Q9NY59).
T1 sequence (Q9NY59 1-655): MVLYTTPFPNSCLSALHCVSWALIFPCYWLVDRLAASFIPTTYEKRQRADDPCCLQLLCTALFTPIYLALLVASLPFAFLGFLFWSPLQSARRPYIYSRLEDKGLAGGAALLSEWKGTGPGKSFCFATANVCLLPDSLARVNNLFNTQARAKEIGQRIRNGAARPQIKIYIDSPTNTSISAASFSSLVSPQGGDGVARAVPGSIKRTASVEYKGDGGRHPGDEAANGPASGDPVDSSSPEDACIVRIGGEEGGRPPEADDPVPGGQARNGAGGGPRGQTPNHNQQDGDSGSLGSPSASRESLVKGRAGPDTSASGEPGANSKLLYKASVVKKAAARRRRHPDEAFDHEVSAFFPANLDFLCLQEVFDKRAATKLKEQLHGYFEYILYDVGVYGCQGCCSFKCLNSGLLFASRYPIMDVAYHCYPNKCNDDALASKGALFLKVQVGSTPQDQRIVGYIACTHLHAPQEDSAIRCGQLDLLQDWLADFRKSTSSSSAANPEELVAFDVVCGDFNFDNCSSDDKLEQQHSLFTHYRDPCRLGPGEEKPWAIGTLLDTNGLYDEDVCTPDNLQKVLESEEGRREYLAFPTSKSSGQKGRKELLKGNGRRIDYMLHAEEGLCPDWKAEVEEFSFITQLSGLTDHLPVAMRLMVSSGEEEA
As to the kind of experiment: Mode of inhibition: rate vs SM concentration at several DPTIP concentrations (Michaelis-Menten fits). Format: biochemical. More on the design: Full length human nSMase2 cDNA with a C-terminal Flag tag; host or cells: HEK293 cells, G418-selected; crude sonicated cell lysate used as the enzyme preparation. The settings on record: with respect to SM.

Data set [2] in a line: Metabolic stability in human liver microsomes with NADPH. Format: in vitro ADME. The settings on record: pH 7.4, 1 μM compound, read-out: percent remaining. On the procedure: One potential liability when using chemical probes in vivo is lack of metabolic stability which structurally inactivates the compound before it can reach its molecular target. […] Percent of drug remaining over time was determined by liquid chromatography–tandem mass spectrometry analysis (LC/MS/MS).
Metabolic stability assay was conducted in mouse or human liver microsomes as we have described previously with minor modifications. Briefly, the reaction was carried out using potassium phosphate buffer (100 mM, pH 7.4), in the presence of an NADPH regenerating system (compound final concentration was 1 μM; 0.2 mg/mL microsomes). Compound disappearance was monitored over time using a liquid chromatography and tandem mass spectrometry (LC/MS/MS) method. Chromatographic analysis was performed using an Accela ultra high-performance system consisting of an analytical pump and an autosampler coupled with a TSQ Vantage mass spectrometer (Thermo Fisher Scientific Inc., Waltham, MA). […] The mobile phase consisted of 0.1% formic acid in acetonitrile and 0.1% formic acid in water with gradient elution.
In general terms: Liver microsomes are vesicles of endoplasmic reticulum, rich in cytochrome P450 enzymes.

For data set [3], the system named is GFAP-GFP mice. As to the kind of experiment: Striatal IL-1β brain inflammation model: liver cytokines by qRT-PCR. Format: in vivo, mouse. The settings on record: 10 mg/kg IP; 2 h post IL-1β. On the procedure:
As we have previously shown[11],[18], striatal injection of IL-1β in mice expressing GFP-GFAP in astroglia triggers a release of GFP-labelled EVs that rapidly enter into plasma, resulting in cytokine upregulation in liver and peripheral immune cell migration into brain[11]. […] There were two groups of mice: the first group was sacrificed 2 h after IL-1β administration by heart puncture, and GFP-labeled circulating EVs were measured with liver cytokines. […] Counting of astrocyte-released EV (GFP+) from blood and liver cytokine analysis was conducted by single injection of DPTIP. Although release of EVs from astrocytes can be initiated immediately after intracranial injection of IL-1β, infiltration of neutrophils in brain parenchyma occurred 12h-24h after the IL-1β injection. […]
Compounds were given 0.5 h before IL-1β dosing. […] (C) Liver cytokine levels under different treatments as measured by qRT-PCR of RNA isolated from fresh frozen liver tissue. Samples were analyzed in triplicate. **p < 0.01 and *p < 0.05 compared to saline control; ^##p < 0.01 and ^#p < 0.05 compared to IL1-β group. (D) Neutrophil levels in brain as measured by immunohistochemistry using coronal brain sections and Ly6b antibody. (E) Quantitation of (D); **p < 0.01 compared to saline control; ^##p < 0.01 compared to IL1-β group. […]
For orientation: In qPCR the cycle at which signal appears reflects the starting amount.

Entries after “also recorded” stand apart in the source; their conditions may differ.

Take `COc1cc(-c2nc(-c3cccs3)c(-c3ccccc3)[nH]2)cc(OC)c1O` [DPTIP, 2,6-Dimethoxy-4-(5-Phenyl-4-Thiophen-2-yl-1H-Imidazol-2-yl)-Phenol]: the mode of inhibition result in data set [1] is recorded as “noncompetitive”. Moreover, in data set [2], the share remaining at 1 h, 1 μM was 100%. In addition, in data set [3], the “effect on upregulation of liver cytokines upon IL-1β treatment” value is listed as “reduction of cytokine upregulation in liver; also recorded: inhibited”.

For orientation: fraction remaining means what is left of the initial amount, in per cent.
